Source: patent publication US4855324A, “Furyl, phenylene, and thienyl leukotriene B4 analogues” (G. D. Searle & Co., priority 1988, dated 1989)

How the values were obtained:
[1] = Boyden Chamber Inhibition (as Antagonist); type: cell-based; settings: at 10^-5 (concentration unit not given)
Human Neutrophil = Human Neutrophil Degranulation Assay (LTB4 induced, myeloperoxidase release); type: cell-based; settings: LTB4 5×10^-8 M, cytochalasin B, 37°C, read-out: Inhibition of LTB4 Induced Neutrophil Degranulation IC50
Text: For use in both the "LTB4 receptor Binding Assay" and the "human Neutrophil Degranulation Assay", neutrophils were purified from venous blood of normal human donors using standard techniques of dextran sedimentaion, centrifugation on Histopaque^2 (density solution) and hypotonic lysis of erythrocytes (Boyum, A., Isolation of Leukocytes From Human Blood: Further Observations. Scand. J. Lab. Clin. Inves. 21 (Suppl. 97): 31, 1968). The purity of isolated neutrophilis was ≥95%.
LTB4 induced neutrophil degranulation was determined by measuring the release of myeloperoxidase activity into the incubation medium. Neturophils (3 ×10^6) in 1ml HBSS solution were preincubated with cytochalasin B(5μg) at 37°C. for 5 minutes, followed by preincubation with test compounds for 7 minutes. Neutrophils were then incubated for 2 to 20 minutes with either LTB4 (5 ×10^- 8M) or the chemotatic peptide f-met-leu-phe (5 ×10^- 6M) to induce degranulation. Following incubation, samples were centrifuged and myeloperoxidase was extracted from the cell pellets by sonication in phoshpate buffer containing 0.4% Triton X-100. Triton X-100 was also added to the supernatents to a concentration of 0.4%. The supernatants and the pellet extracts were then assayed spectrophotometrically for myeloperoxide activity by determining the rate of decomposition of H2 O2 withh o-dianisidine as hydrogen donor as described by Renlund, D. G., MacFarlane, J. L., Christensen, R. D., Lynch, R. E., and Rothstein, G., A Quantitative And Sensitive Method For Measurement Of Myeloperoxidase, Clinical Research 28:75A, 1980). Myeloperoxidase activity released into the supernatant was expressed as the percent of the average total activity (pellet plus supernatant).
The inhibition of LTB4 induced neutrophil degranulation was determined for representative compounds of this invention and their corresponding IC50 values were calculated (Table 1). The concentration of a compound which inhibited LTB4 induced neutrophil degranulation by 50% was determined to be its IC50 value.

LTB4 receptors = target: T1, LTB4 receptors (Homo sapiens, UniProt Q15722); assay: LTB4 Receptor Binding Assay (inhibition of specific (3H) LTB4 binding to neutrophils); settings: 0.6nM (3H) LTB4, human neutrophils, 0°C, 45 minutes, pH 7.4
T1 construct: neutrophils were purified from venous blood of normal human donors; endogenous in cells; host or cells: human neutrophils purified from venous blood of normal donors
T1 sequence (Q15722 whole entry): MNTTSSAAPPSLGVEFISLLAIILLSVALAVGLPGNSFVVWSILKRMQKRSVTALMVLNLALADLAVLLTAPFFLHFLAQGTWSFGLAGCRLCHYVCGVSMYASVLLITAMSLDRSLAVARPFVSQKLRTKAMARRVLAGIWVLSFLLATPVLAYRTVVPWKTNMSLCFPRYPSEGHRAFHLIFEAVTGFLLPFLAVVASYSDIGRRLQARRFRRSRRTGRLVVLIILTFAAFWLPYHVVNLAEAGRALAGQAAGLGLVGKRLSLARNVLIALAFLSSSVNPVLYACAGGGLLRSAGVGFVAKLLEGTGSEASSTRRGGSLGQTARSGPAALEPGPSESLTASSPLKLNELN
Experimental: Neutrophils (4-6×10^6) in 1ml of Hanks' balanced salt solution containing 10mM Hepes Buffer (HBSS), pH 7.4 and 30 μM nordihydroguaiaretic acid were incubated with 0.6nM (^3 H) LTB4 in the presence or absence of test compounds. The incubation was carried out at 0°C. for 45 minutes and terminated by adding 5ml of ice-cold HBSS followed by rapid filtration of incubation mixture under vacuum through GF/C glass fiber filters. The filters were further washed with 10ml HBSS and their radioactivity determined. Specific binding was defined as the difference between total binding and nonspecific binding which was not displaced by 10^- 7M unlabeled LTB4.

SMILES	Boyden Chamber Inhibition at 10^-5 (as Antagonist) [1] [%]	IC50 (Human Neutrophil) [µM]	IC50 (LTB4 receptors) [µM]
CCCCCCCCC(O)/C=C/C=C/c1ccc(C(O)CCCC(=O)O)s1 (stereo not drawn)	33	5.2	6.3
CCCCCCCCC(O)/C=C/C=C/c1ccc(C(=O)CCCC(=O)O)s1 (stereo not drawn)	30	1.8	4.1
CCCCCCCCC(O)/C=C/C=C/c1ccccc1C(=O)CCCC(=O)O (stereo not drawn)	8	1	3
